From US6458781B1, “Substituted diarylalkyl amides as calcium channel antagonists” (priority 1998, dated 2002) come the findings set out here.

For experiment [1], the target named is T1, N-type calcium channels in IMR32 human neuroblastoma cells (Homo sapiens, UniProt Q00975).
T1 construct: expressing neuronal N-type calcium channels upon differentiation, was used for this assay; host or cells: IMR32 human neuroblastoma cells differentiated with dibutyryl cAMP and 5-bromo-2-deoxyuridine
Description: FLPIMR assay (FLIPR, IMR32 cells). Format: cell-based. The settings on record: nitrendipine present, read-out: FLP IMR IC50. On the procedure:
In Vitro Protocol: FLPIMR Assays
Calcium flux through voltage-sensitive calcium channels was assessed by time-resolved monitoring of the fluorescence of pre-loaded intracellular calcium-sensitive dyes using FLIPR, a fluorescent image plate reader (Molecular Devices Co.). The IMR32 human neuroblastoma cell line (ATCC, CRL-127), expressing neuronal N-type calcium channels upon differentiation, was used for this assay. IMR32 cells were grown in MEM media (Gibco BRL, 11095-080), supplemented with 10% fetal bovine serum (Gibco BRL, 26140-087), 1% antibiotic-antimycotic (Gibco BRL, 15240-096), 1% L-glutamine (Gibco BRL, 25030-032). Cells, grown to confluency, were differentiated for a period of 7-10 days, or longer, by adding 1 mM dibutyryl cAMP (Sigma D-0627) and 2.5 μM 5-bromo-2-deoxyuridine (Sigma B-9285) to the media. The differentiation media was fed continuously to cells until the cells were used in an experiment.
Differentiated cells were removed from T150 flasks by aspirating media and adding 10 mL harvesting solution consisting of 0.5 mM EDTA in DPBS without calcium or magnesium (Gibco BRL, 14190-144). Cells were then centrifuged at 1500 rpm (≈500 g) for 3 minutes in a Beckman tabletop centrifuge in order to remove the harvesting solution. Cells were resuspended in 10 mL of media containing 1 μM Oregon Green 488 Bapta-1 dye (Molecular Probes, O-6807) and placed in a 37° C. shaking waterbath for 1 hour. The dye-containing media was then diluted with 40 mL buffer (composition in mM: 1.25 CaCl2, 1.2 MgSO4, 11 glucose, 10 HEPES, 3.0 KCl, 137.0 NaCl, pH 7.4 with Tris base) and cells were centrifuged at 1500 rpm (≈500 g) for 3 minutes. Cells were resuspended and washed a second time with 40-50 mL incubation buffer. After centrifugation, cells were resuspended and 200 μL aliquots were plated on black-sided 96-well plates (Costar, 3603) for use in FLIPR. The plates of cells were centrifuged at 750 rpm (≈100 g) for 1.5 minutes to settle the cells to the bottom of the wells. Cells were given one final wash at setting BF1F in a Denley Cellwash (Labsystems, CW018B). The residual buffer volume was adjusted to 50 μL. A 5-minute drug-preincubation period at 35° C. was initiated when 50 μL of drug-containing buffer was pipetted into the cell plate with the 96-well pipettor integrated in the FLIPR apparatus. Nitrendipine, at a concentration of 4 μM, was included in this buffer, in addition to compounds of the present invention at various concentrations. […] Fluorescent counts were monitored at 20 s intervals for 360 s, beginning 60 s prior to the delivery of drug-containing buffer. Following drug addition, 100 μL aliquots of a high K^+, depolarizing stimulus (composition in mM: 1.25 CaCl2, 1.2 MgSO4, 11 glucose, 10 HEPES, 140.0 KCl, pH 7.4 with Tris base) were added to each well, and fluorescence was monitored at 1 s intervals for 120 s, beginning 10 s prior to the stimulus addition. CCD camera exposure time was 0.4 s; laser excitation was at 488 nm with a power of 0.2-0.5W; and a 510 to 560 nm bandpass interference filter preceded the camera.
Data was analyzed as a summation of fluorescent counts above basal during the stimulation period (an approximation of area under the curve), after normalizing the data with a spatial uniformity correction (for variations in laser illumination and cell density) and a negative control correction (zero calcium increase defined as the fluorescence reading in the presence of saturating pharmacologic block of the N-type calcium channel). […] This component was not included in any calculations.
Drug effects were expressed as percent inhibition of fluorescence from an average of 8 K^+-stimulated wells which were pre-treated in the drug incubation period with buffer only. Data was analyzed using FLIPR software and Microsoft Excel spreadsheet software.

In experiment [2] the test system is acetic acid-induced writhing in Swiss-Webster mice. Description: Anti-writhing test in mice (AW). The format is in vivo. The settings on record: 10 mg/kg. An excerpt: Anti-Writhing Test in Mice (AW) Test Protocol
The purpose of this test is to evaluate drugs for analgesic-like activity. The AW test determines the effect of drugs on the response to a presumed painful stimulus in mice and is used as a preliminary in vivo procedure for the identification of potential analgesic agents.
Known analgesics with low, moderate, or high efficacy in man allow mice to tolerate intra-peritoneal administration of dilute acetic acid as evidenced by lesser incidence of writhing movements. The AW test measures the nociceptive response to acetic acid in mice and provides an objective, reliable, and quantitative estimate of efficacy and potency of potential analgesic compounds. This test serves as a preclinical predictor of analgesic activity.
Subjects are male Swiss-Webster mice (25-35 g).
Compounds are dissolved or suspended in physiological saline containing 2% Emulphor. Suspensions are subjected to ultrasonication for 3 minutes. Drug doses are expressed as the active moiety and are normally administered to mice (10, 30, and 100 mg/kg IP, SC, PO, or IM) in a volume of 10 mL/kg, 1 hour prior to testing; ICV doses (in μg/kg) are administered in a volume of 0.5 mL/kg, 5 minutes prior to testing. Animals dosed PO are fasted for 16 hours prior to dosing. Groups of eight mice are tested with each dose or the vehicle solution (control group).
Mice are treated with a dilute solution of acetic acid (0.6%, 10 mL/kg IP) which elicits writhing. In four successive trials, one pair of mice from each treatment group is placed in one of four adjacent clear plexiglas chambers (4 in×4 in×4 in). This allows the simultaneous observation of four pairs of mice representing all treatments and controls throughout the test. Writhing movements (abdominal contractions, stretching of the torso and hind legs, and concave arching of the back) are counted for 5 minutes commencing 7 minutes after acetic acid administration.
Drug effects on acetic acid-induced writhing are expressed as percent suppression of writhing relative to the vehicle-treated control group run in parallel with treated animals. The writhing tallies from pairs of animals are summed for each treatment and are divided by the summed writhing in the control group. The ED50s for suppression of writhing are determined by nonlinear regression analysis.
A general note: An intraperitoneal irritant provokes the stretching counted in writhing tests.

Where a name gives a salt, the structure may show the parent alone.

T1 sequence (Q00975 whole entry): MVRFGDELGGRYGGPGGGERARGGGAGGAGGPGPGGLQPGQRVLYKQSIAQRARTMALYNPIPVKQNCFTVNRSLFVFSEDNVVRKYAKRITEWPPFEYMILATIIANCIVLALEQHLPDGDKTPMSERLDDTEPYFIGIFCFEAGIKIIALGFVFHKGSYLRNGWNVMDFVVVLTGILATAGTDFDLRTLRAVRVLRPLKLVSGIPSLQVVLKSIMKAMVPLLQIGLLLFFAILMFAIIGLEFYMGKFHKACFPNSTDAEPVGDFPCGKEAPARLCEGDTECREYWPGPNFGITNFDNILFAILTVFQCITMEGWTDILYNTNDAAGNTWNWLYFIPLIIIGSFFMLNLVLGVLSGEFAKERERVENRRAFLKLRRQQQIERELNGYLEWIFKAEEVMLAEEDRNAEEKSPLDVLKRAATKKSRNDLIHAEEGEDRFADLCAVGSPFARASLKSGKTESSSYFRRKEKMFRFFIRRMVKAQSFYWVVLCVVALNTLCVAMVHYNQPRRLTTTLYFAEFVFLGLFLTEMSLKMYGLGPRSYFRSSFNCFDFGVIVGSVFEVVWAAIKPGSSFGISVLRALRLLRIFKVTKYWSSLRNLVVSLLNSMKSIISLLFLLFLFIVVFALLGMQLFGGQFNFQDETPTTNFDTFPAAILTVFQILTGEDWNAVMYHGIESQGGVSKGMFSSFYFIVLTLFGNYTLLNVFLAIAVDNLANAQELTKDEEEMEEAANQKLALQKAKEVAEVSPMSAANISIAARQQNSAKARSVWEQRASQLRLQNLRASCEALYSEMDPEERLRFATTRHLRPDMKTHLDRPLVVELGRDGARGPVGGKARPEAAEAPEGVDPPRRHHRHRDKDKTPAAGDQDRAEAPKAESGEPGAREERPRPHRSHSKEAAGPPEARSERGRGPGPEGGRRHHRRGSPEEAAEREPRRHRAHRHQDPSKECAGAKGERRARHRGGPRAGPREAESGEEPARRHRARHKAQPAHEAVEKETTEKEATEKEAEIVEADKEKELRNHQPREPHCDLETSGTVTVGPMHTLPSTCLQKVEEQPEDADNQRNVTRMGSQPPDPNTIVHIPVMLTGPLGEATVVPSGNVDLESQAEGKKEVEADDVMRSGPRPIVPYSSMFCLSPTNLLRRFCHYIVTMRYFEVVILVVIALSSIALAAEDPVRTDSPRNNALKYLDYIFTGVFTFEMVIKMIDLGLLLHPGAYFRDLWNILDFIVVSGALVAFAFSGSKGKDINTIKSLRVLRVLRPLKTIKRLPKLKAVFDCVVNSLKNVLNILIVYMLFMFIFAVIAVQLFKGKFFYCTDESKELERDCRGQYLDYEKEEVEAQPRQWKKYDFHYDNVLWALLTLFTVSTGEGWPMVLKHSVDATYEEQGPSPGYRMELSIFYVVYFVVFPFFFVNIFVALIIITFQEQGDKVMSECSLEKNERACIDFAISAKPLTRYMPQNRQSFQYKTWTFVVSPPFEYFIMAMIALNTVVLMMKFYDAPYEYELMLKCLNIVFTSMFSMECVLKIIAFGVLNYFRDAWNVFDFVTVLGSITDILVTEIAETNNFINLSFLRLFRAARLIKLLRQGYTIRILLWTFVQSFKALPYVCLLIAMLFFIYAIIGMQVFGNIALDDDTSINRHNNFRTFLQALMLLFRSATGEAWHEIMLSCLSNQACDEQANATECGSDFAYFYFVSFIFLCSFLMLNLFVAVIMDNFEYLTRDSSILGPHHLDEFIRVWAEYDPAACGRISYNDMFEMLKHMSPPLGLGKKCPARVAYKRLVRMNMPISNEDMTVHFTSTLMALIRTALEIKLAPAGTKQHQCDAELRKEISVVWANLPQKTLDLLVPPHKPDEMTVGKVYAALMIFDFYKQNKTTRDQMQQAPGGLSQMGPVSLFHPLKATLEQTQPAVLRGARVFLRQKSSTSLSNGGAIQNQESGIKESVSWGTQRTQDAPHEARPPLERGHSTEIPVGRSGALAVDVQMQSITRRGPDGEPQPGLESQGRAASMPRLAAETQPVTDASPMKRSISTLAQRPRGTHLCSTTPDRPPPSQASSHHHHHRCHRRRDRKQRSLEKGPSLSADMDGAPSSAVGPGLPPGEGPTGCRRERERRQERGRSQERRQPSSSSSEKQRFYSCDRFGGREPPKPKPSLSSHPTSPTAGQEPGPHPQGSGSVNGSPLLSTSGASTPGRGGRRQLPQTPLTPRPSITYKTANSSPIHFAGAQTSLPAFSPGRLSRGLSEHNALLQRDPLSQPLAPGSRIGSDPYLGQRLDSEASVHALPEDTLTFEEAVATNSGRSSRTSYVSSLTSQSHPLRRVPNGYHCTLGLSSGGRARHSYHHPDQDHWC
T1 sequence (P54289 25-956 partner limits assumed): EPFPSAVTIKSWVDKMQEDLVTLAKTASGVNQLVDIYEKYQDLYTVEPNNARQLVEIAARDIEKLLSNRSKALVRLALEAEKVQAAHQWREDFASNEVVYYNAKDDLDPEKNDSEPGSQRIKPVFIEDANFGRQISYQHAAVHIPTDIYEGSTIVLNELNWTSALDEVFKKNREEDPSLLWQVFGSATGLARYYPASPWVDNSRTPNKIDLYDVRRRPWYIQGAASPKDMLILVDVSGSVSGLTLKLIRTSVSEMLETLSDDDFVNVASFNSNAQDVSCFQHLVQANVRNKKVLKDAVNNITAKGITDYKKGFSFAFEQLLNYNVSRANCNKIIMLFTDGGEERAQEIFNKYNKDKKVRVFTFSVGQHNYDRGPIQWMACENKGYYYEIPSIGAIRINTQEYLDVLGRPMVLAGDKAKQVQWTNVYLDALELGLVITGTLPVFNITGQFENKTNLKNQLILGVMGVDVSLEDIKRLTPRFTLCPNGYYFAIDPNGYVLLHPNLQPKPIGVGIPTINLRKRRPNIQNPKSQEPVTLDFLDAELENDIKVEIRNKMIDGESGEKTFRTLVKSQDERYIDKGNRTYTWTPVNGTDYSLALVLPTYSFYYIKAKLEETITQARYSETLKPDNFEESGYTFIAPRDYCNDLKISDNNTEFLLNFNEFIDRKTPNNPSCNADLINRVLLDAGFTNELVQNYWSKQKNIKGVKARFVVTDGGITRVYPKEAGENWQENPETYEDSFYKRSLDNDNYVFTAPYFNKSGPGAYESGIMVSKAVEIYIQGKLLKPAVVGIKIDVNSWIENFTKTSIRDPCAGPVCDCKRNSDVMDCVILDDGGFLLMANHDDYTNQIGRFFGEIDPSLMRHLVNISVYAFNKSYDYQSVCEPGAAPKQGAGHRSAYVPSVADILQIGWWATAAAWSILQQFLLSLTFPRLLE
T1 sequence (P54289 957-1103 partner limits assumed): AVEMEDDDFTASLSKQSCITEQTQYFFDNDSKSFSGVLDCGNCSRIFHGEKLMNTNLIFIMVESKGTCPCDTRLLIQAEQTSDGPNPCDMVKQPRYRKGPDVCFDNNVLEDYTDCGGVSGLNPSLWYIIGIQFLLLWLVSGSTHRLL
T1 sequence (Q02641 whole entry partner): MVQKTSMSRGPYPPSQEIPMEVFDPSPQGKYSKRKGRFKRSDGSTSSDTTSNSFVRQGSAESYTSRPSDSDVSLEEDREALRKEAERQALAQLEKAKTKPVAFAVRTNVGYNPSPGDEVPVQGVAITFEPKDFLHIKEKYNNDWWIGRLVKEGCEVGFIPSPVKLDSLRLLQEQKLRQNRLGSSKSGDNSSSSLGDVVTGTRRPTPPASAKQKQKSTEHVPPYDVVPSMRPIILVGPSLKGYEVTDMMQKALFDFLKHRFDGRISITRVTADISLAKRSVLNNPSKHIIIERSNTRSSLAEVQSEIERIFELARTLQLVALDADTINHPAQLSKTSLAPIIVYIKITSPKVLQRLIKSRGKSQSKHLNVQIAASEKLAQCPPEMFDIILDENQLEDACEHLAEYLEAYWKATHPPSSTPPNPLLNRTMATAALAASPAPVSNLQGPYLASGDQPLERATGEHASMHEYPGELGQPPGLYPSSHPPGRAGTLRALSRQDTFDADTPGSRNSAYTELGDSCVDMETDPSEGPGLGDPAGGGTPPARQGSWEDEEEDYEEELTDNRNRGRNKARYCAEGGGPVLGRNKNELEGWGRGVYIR

As a reminder, the IC50 is the concentration that gives 50% inhibition. On to `CN[C@H](CC(C)C)C(=O)NCCCC(c1ccc(F)cc1)c1ccc(F)cc1` [Example 71, (R)-4-Methyl-2-methylamino-pentanoic acid [4,4-bis-(4-fluorophenyl)-butyl]-amide monohydrochloride], for which, in experiment [1], the IC50 was determined as 2500 nM. Besides, the “Anti-Writhing % Protection (dose)” value in experiment [2] came to 33.9% @ 10 mg/kg. Turning to `CC(C)C[C@H](O)C(=O)NCCCC(c1ccc(F)cc1)c1ccc(F)cc1` [Example 72, (S)-2-Hydroxy-4-methyl-pentanoic acid [4,4-bis-(4-fluoro-phenyl)-butyl]-amide], the IC50 in experiment [1] was found to be 1900 nM. For the compound `CN[C@H](C(=O)NCCCC(c1ccc(F)cc1)c1ccc(F)cc1)C(C)C` [Example 73, (S)-3-Methyl-2-methylamino-butanoic acid [4,4-bis-(4-fluorophenyl)-butyl]-amide monohydrochloride], in experiment [1], the IC50 is 3900 nM. For the same compound, in experiment [2], the “Anti-Writhing % Protection (dose)” value is given as 90.4% @ 10 mg/kg. On to `CNCC(=O)NCCCC(c1ccc(F)cc1)c1ccc(F)cc1` [Example 74, N-[4,4-Bis-(4-fluoro-phenyl)-butyl]-2-methylamino-acetamide], for which the IC50 in experiment [1] is 2900 nM.

On to `CN[C@@H](CNCCCC(c1ccc(F)cc1)c1ccc(F)cc1)CC(C)C` [Example 77, (R)-N^1-[4,4-Bis-(4-fluoro-phenyl)-butyl]-4-N^2-dimethyl-pentane-1,2-diamine], for which the IC50 in experiment [1] is 2200 nM. Moreover, the “Anti-Writhing % Protection (dose)” value in experiment [2] was found to be 43.4% @ 10 mg/kg. For `CC(C)CN(C)CC(=O)NCCCC(c1ccc(F)cc1)c1ccc(F)cc1` [Example 78, N-[4,4-Bis-(4-fluoro-phenyl)-butyl]-2-(isobutyl-methyl-amino)-acetamide], in experiment [1], the IC50 was 1600 nM. Also, the “Anti-Writhing % Protection (dose)” value in experiment [2] was found to be 0% @ 10 mg/kg. As to “(S)-N^1-[4,4-Bis-(4-fluoro-phenyl)-butyl]-4-N^2-dimethyl-pentane-1,2-diamine [Example 76]”, in experiment [1], the IC50 was found to be 2200 nM. The “Anti-Writhing % Protection (dose)” value in experiment [2] came to 20.9% @ 10 mg/kg.
